Measured values published in the NIST ThermoML archive (doi:10.1016/j.jct.2019.05.021).
Numbers after ± are expanded uncertainties.

Experiments:
[1] = xn = mol fraction of the nth substance listed; details: 100 kPa, Liquid, x1 = 1; for viscosity: Falling or rolling sphere viscometry; for mass density: Vibrating tube method
[2] = 100 kPa, Liquid; for viscosity: Falling or rolling sphere viscometry; for mass density: Vibrating tube method

## CC1CCCCC1 [methylcyclohexane] + CCCCCCCCCCCCCC(=O)OC
[1]; 293.15 K
  viscosity: 0.733 ± 0.016 mPa·s
  mass density: 769.38 ± 1.6 kg/m3
[1]; 298.15 K
  viscosity: 0.681 ± 0.015 mPa·s
  mass density: 765.06 ± 1.5 kg/m3
[1]; 303.15 K
  viscosity: 0.638 ± 0.014 mPa·s
  mass density: 760.71 ± 1.5 kg/m3
[1]; 308.15 K
  viscosity: 0.599 ± 0.013 mPa·s
  mass density: 756.35 ± 1.5 kg/m3
[1]; 313.15 K
  viscosity: 0.563 ± 0.012 mPa·s
  mass density: 751.98 ± 1.5 kg/m3
[1]; 318.15 K
  viscosity: 0.533 ± 0.011 mPa·s
  mass density: 747.59 ± 1.5 kg/m3
[1]; 323.15 K
  viscosity: 0.505 ± 0.011 mPa·s
  mass density: 743.19 ± 1.5 kg/m3

## CC1CCCCC1 [methylcyclohexane] + CCCCCCCCCC(=O)OC
[1]; 293.15 K
  viscosity: 0.733 ± 0.016 mPa·s
  mass density: 769.38 ± 1.6 kg/m3
[1]; 298.15 K
  viscosity: 0.681 ± 0.015 mPa·s
  mass density: 765.06 ± 1.5 kg/m3
[1]; 303.15 K
  viscosity: 0.638 ± 0.014 mPa·s
  mass density: 760.71 ± 1.5 kg/m3
[1]; 308.15 K
  viscosity: 0.599 ± 0.013 mPa·s
  mass density: 756.35 ± 1.5 kg/m3
[1]; 313.15 K
  viscosity: 0.563 ± 0.012 mPa·s
  mass density: 751.98 ± 1.5 kg/m3
[1]; 318.15 K
  viscosity: 0.533 ± 0.011 mPa·s
  mass density: 747.59 ± 1.5 kg/m3
[1]; 323.15 K
  viscosity: 0.505 ± 0.011 mPa·s
  mass density: 743.19 ± 1.5 kg/m3

## CC1CCCCC1 [methylcyclohexane] + CCCCCCCCCCCC(=O)OC
[1]; 293.15 K
  viscosity: 0.733 ± 0.016 mPa·s
  mass density: 769.38 ± 1.6 kg/m3
[1]; 298.15 K
  viscosity: 0.681 ± 0.015 mPa·s
  mass density: 765.06 ± 1.5 kg/m3
[1]; 303.15 K
  viscosity: 0.638 ± 0.014 mPa·s
  mass density: 760.71 ± 1.5 kg/m3
[1]; 308.15 K
  viscosity: 0.599 ± 0.013 mPa·s
  mass density: 756.35 ± 1.5 kg/m3
[1]; 313.15 K
  viscosity: 0.563 ± 0.012 mPa·s
  mass density: 751.98 ± 1.5 kg/m3
[1]; 318.15 K
  viscosity: 0.533 ± 0.011 mPa·s
  mass density: 747.59 ± 1.5 kg/m3
[1]; 323.15 K
  viscosity: 0.505 ± 0.011 mPa·s
  mass density: 743.19 ± 1.5 kg/m3

## CC1CCCCC1 [methylcyclohexane]
[2]; 293.15 K
  viscosity: 0.733 ± 0.016 mPa·s
  mass density: 769.38 ± 1.6 kg/m3
[2]; 298.15 K
  viscosity: 0.681 ± 0.015 mPa·s
  mass density: 765.06 ± 1.5 kg/m3
[2]; 303.15 K
  viscosity: 0.638 ± 0.014 mPa·s
  mass density: 760.71 ± 1.5 kg/m3
[2]; 308.15 K
  viscosity: 0.599 ± 0.013 mPa·s
  mass density: 756.35 ± 1.5 kg/m3
[2]; 313.15 K
  viscosity: 0.563 ± 0.012 mPa·s
  mass density: 751.98 ± 1.5 kg/m3
[2]; 318.15 K
  viscosity: 0.533 ± 0.011 mPa·s
  mass density: 747.59 ± 1.5 kg/m3
[2]; 323.15 K
  viscosity: 0.505 ± 0.011 mPa·s
  mass density: 743.19 ± 1.5 kg/m3

## CCCCCCCCCCCC(=O)OC [methyl dodecanoate]
[2]; 293.15 K
  viscosity: 3.151 ± 0.067 mPa·s
  mass density: 869.3 ± 1.7 kg/m3
[2]; 298.15 K
  viscosity: 2.792 ± 0.06 mPa·s
  mass density: 865.39 ± 1.7 kg/m3
[2]; 303.15 K
  viscosity: 2.504 ± 0.054 mPa·s
  mass density: 861.46 ± 1.7 kg/m3
[2]; 308.15 K
  viscosity: 2.263 ± 0.048 mPa·s
  mass density: 857.53 ± 1.7 kg/m3
[2]; 313.15 K
  viscosity: 2.049 ± 0.044 mPa·s
  mass density: 853.61 ± 1.7 kg/m3
[2]; 318.15 K
  viscosity: 1.875 ± 0.04 mPa·s
  mass density: 849.69 ± 1.7 kg/m3
[2]; 323.15 K
  viscosity: 1.729 ± 0.037 mPa·s
  mass density: 845.76 ± 1.7 kg/m3

## CCCCCCCCCC(=O)OC [methyl decanoate]
[2]; 293.15 K
  viscosity: 2.125 ± 0.047 mPa·s
  mass density: 872.25 ± 1.8 kg/m3
[2]; 298.15 K
  viscosity: 1.909 ± 0.042 mPa·s
  mass density: 868.16 ± 1.8 kg/m3
[2]; 303.15 K
  viscosity: 1.738 ± 0.038 mPa·s
  mass density: 864.06 ± 1.8 kg/m3
[2]; 308.15 K
  viscosity: 1.588 ± 0.035 mPa·s
  mass density: 859.96 ± 1.7 kg/m3
[2]; 313.15 K
  viscosity: 1.453 ± 0.032 mPa·s
  mass density: 855.85 ± 1.7 kg/m3
[2]; 318.15 K
  viscosity: 1.341 ± 0.029 mPa·s
  mass density: 851.74 ± 1.7 kg/m3
[2]; 323.15 K
  viscosity: 1.245 ± 0.027 mPa·s
  mass density: 847.62 ± 1.7 kg/m3

## CCCCCCCCCCCCCC(=O)OC [methyl tetradecanoate]
[2]; 293.15 K
  viscosity: 4.557 ± 0.1 mPa·s
  mass density: 867.17 ± 1.8 kg/m3
[2]; 298.15 K
  viscosity: 3.979 ± 0.088 mPa·s
  mass density: 863.35 ± 1.8 kg/m3
[2]; 303.15 K
  viscosity: 3.519 ± 0.078 mPa·s
  mass density: 859.54 ± 1.8 kg/m3
[2]; 308.15 K
  viscosity: 3.093 ± 0.069 mPa·s
  mass density: 855.74 ± 1.7 kg/m3
[2]; 313.15 K
  viscosity: 2.797 ± 0.062 mPa·s
  mass density: 851.94 ± 1.7 kg/m3
[2]; 318.15 K
  viscosity: 2.544 ± 0.056 mPa·s
  mass density: 848.14 ± 1.7 kg/m3
[2]; 323.15 K
  viscosity: 2.308 ± 0.051 mPa·s
  mass density: 844.34 ± 1.7 kg/m3
